Patent publication US10206394B2, “Herbicidal compounds” (Syngenta Participations AG, priority 2014, dated 2019)
Where two headings read alike, the source gives them in different places.

Experiments:
Test in all cases: Glasshouse assay for herbicidal activity (pre- and post-emergence), percentage phytotoxicity
Format in all cases: in vivo
[1] = system: Alopecurus myosuroides (ALOMY); settings: Alopecurus myosuroides
Method in brief: (§1)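 Visually rated damage, 0–100%. PRE spray 1 d after sowing, scored 20 DAA; POST spray ~12 d, scored 15 DAA. Glasshouse at 65% humidity, 16 h day.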

Avena fatua (AVEFA) = settings: Avena fatua
Method in brief: as §1

[2] = system: Echinochloa crus-galli (ECHCG); settings: Echinochloa crus-galli
Method in brief: as §1

Lolium perenne (LOLPE) = settings: Lolium perenne
Method in brief: as §1

[3] = post-emergence, 360 h, Rate 250 g/ha, post-emergence, assessed visually 15 DAA, 100%=total damage, 0%=no damage, read-out: Post-emergence herbicidal activity (percentage phytotoxicity) ALOMY POST
[4] = pre-emergence, 480 h, Rate 250 g/ha, pre-emergence, assessed visually 20 DAA, 100%=total damage, 0%=no damage, read-out: Pre-emergence herbicidal activity (percentage phytotoxicity) ALOMY PRE
[5] = post-emergence, 360 h, Rate 250 g/ha, post-emergence, assessed visually 15 DAA, 100%=total damage, 0%=no damage, read-out: Post-emergence herbicidal activity (percentage phytotoxicity) AVEFA POST
[6] = pre-emergence, 480 h, Rate 250 g/ha, pre-emergence, assessed visually 20 DAA, 100%=total damage, 0%=no damage, read-out: Pre-emergence herbicidal activity (percentage phytotoxicity) AVEFA PRE
[7] = post-emergence, 360 h, Rate 250 g/ha, post-emergence, assessed visually 15 DAA, 100%=total damage, 0%=no damage, read-out: Post-emergence herbicidal activity (percentage phytotoxicity) ECHCG POST
[8] = pre-emergence, 480 h, Rate 250 g/ha, pre-emergence, assessed visually 20 DAA, 100%=total damage, 0%=no damage, read-out: Pre-emergence herbicidal activity (percentage phytotoxicity) ECHCG PRE
[9] = post-emergence, 360 h, Rate 250 g/ha, post-emergence, assessed visually 15 DAA, 100%=total damage, 0%=no damage, read-out: Post-emergence herbicidal activity (percentage phytotoxicity) LOLPE POST
[10] = pre-emergence, 480 h, Rate 250 g/ha, pre-emergence, assessed visually 20 DAA, 100%=total damage, 0%=no damage, read-out: Pre-emergence herbicidal activity (percentage phytotoxicity) LOLPE PRE
[11] = post-emergence, 360 h, 250 g/ha, post-emergence, 15 DAA, visual assessment (100%=total damage, 0%=no damage), read-out: Post-emergence herbicidal activity (percentage phytotoxicity) ALOMY POST
[12] = pre-emergence, 480 h, 250 g/ha, pre-emergence, 20 DAA, visual assessment (100%=total damage, 0%=no damage), read-out: Pre-emergence herbicidal activity (percentage phytotoxicity) ALOMY PRE
[13] = post-emergence, 360 h, 250 g/ha, post-emergence, 15 DAA, visual assessment (100%=total damage, 0%=no damage), read-out: Post-emergence herbicidal activity (percentage phytotoxicity) AVEFA POST
[14] = pre-emergence, 480 h, 250 g/ha, pre-emergence, 20 DAA, visual assessment (100%=total damage, 0%=no damage), read-out: Pre-emergence herbicidal activity (percentage phytotoxicity) AVEFA PRE
[15] = post-emergence, 360 h, 250 g/ha, post-emergence, 15 DAA, visual assessment (100%=total damage, 0%=no damage), read-out: Post-emergence herbicidal activity (percentage phytotoxicity) ECHCG POST
[16] = pre-emergence, 480 h, 250 g/ha, pre-emergence, 20 DAA, visual assessment (100%=total damage, 0%=no damage), read-out: Pre-emergence herbicidal activity (percentage phytotoxicity) ECHCG PRE
[17] = post-emergence, 360 h, 250 g/ha, post-emergence, 15 DAA, visual assessment (100%=total damage, 0%=no damage), read-out: Post-emergence herbicidal activity (percentage phytotoxicity) LOLPE POST
[18] = pre-emergence, 480 h, 250 g/ha, pre-emergence, 20 DAA, visual assessment (100%=total damage, 0%=no damage), read-out: Pre-emergence herbicidal activity (percentage phytotoxicity) LOLPE PRE
[19] = post-emergence, 360 h, POST-emergence, rate 250 g/ha, visual score 15 DAA (100%=total damage, 0%=no damage), read-out: Post-emergence herbicidal activity (percentage phytotoxicity) ALOMY POST
[20] = pre-emergence, 480 h, PRE-emergence, rate 250 g/ha, visual score 20 DAA (100%=total damage, 0%=no damage), read-out: Pre-emergence herbicidal activity (percentage phytotoxicity) ALOMY PRE
[21] = post-emergence, 360 h, POST-emergence, rate 250 g/ha, visual score 15 DAA (100%=total damage, 0%=no damage), read-out: Post-emergence herbicidal activity (percentage phytotoxicity) AVEFA POST
[22] = pre-emergence, 480 h, PRE-emergence, rate 250 g/ha, visual score 20 DAA (100%=total damage, 0%=no damage), read-out: Pre-emergence herbicidal activity (percentage phytotoxicity) AVEFA PRE
[23] = post-emergence, 360 h, POST-emergence, rate 250 g/ha, visual score 15 DAA (100%=total damage, 0%=no damage), read-out: Post-emergence herbicidal activity (percentage phytotoxicity) ECHCG POST
[24] = pre-emergence, 480 h, PRE-emergence, rate 250 g/ha, visual score 20 DAA (100%=total damage, 0%=no damage), read-out: Pre-emergence herbicidal activity (percentage phytotoxicity) ECHCG PRE
[25] = post-emergence, 360 h, POST-emergence, rate 250 g/ha, visual score 15 DAA (100%=total damage, 0%=no damage), read-out: Post-emergence herbicidal activity (percentage phytotoxicity) LOLPE POST
[26] = pre-emergence, 480 h, PRE-emergence, rate 250 g/ha, visual score 20 DAA (100%=total damage, 0%=no damage), read-out: Pre-emergence herbicidal activity (percentage phytotoxicity) LOLPE PRE

Compound	pest or weed control at 250 g/ha [1, 11] [%]	pest or weed control at 250 g/ha [1, 12] [%]	pest or weed control at 250 g/ha (Avena fatua (AVEFA); [13]) [%]	pest or weed control at 250 g/ha (Avena fatua (AVEFA); [14]) [%]	pest or weed control at 250 g/ha [2, 15] [%]	pest or weed control at 250 g/ha [2, 16] [%]	pest or weed control at 250 g/ha (Lolium perenne (LOLPE); [17]) [%]	pest or weed control at 250 g/ha (Lolium perenne (LOLPE); [18]) [%]	also measured
Cc1cc(-c2ncc(F)cc2Cl)cc(C)c1C1C(=O)CC(CC(=O)NCc2cccs2)C1=O (stereo not drawn) [Compound A150]									pest or weed control at 250 g/ha [1, 3]: 70%; pest or weed control at 250 g/ha [1, 4]: 70%; pest or weed control at 250 g/ha (Avena fatua (AVEFA); [5]): 90%; pest or weed control at 250 g/ha (Avena fatua (AVEFA); [6]): 50%; pest or weed control at 250 g/ha [2, 7]: 90%; pest or weed control at 250 g/ha [2, 8]: 90%; pest or weed control at 250 g/ha (Lolium perenne (LOLPE); [9]): 70%; pest or weed control at 250 g/ha (Lolium perenne (LOLPE); [10]): 80%
Cc1cc(-c2ncc(F)cc2F)cc(C)c1C1C(=O)CC(CC(=O)NCc2cccc(F)c2)C1=O (stereo not drawn) [Compound B70]	100	80	100	80	100	100	100	90	
COCCCNC(=O)CC1CC(=O)C(c2c(C)cc(C)cc2C)C1=O (stereo not drawn) [Compound A176]									pest or weed control at 250 g/ha ([1]; post-emergence, 360 h, post-emergence, 250 g/ha, 15 DAA, visual score (100%=total damage; 0%=no damage), read-out: ALOMY POST herbicidal activity (percentage phytotoxicity)): 90%; pest or weed control at 250 g/ha ([1]; pre-emergence, 480 h, pre-emergence, 250 g/ha, 20 DAA, visual score (100%=total damage; 0%=no damage), read-out: ALOMY PRE herbicidal activity (percentage phytotoxicity)): 90%; pest or weed control at 250 g/ha (Avena fatua (AVEFA); post-emergence, 360 h, post-emergence, 250 g/ha, 15 DAA, visual score (100%=total damage; 0%=no damage), read-out: AVEFA POST herbicidal activity (percentage phytotoxicity)): 90%; pest or weed control at 250 g/ha (Avena fatua (AVEFA); pre-emergence, 480 h, pre-emergence, 250 g/ha, 20 DAA, visual score (100%=total damage; 0%=no damage), read-out: AVEFA PRE herbicidal activity (percentage phytotoxicity)): 90%; pest or weed control at 250 g/ha ([2]; post-emergence, 360 h, post-emergence, 250 g/ha, 15 DAA, visual score (100%=total damage; 0%=no damage), read-out: ECHCG POST herbicidal activity (percentage phytotoxicity)): 100%; pest or weed control at 250 g/ha ([2]; pre-emergence, 480 h, pre-emergence, 250 g/ha, 20 DAA, visual score (100%=total damage; 0%=no damage), read-out: ECHCG PRE herbicidal activity (percentage phytotoxicity)): 100%; pest or weed control at 250 g/ha (Lolium perenne (LOLPE); post-emergence, 360 h, post-emergence, 250 g/ha, 15 DAA, visual score (100%=total damage; 0%=no damage), read-out: LOLPE POST herbicidal activity (percentage phytotoxicity)): 100%; pest or weed control at 250 g/ha (Lolium perenne (LOLPE); pre-emergence, 480 h, pre-emergence, 250 g/ha, 20 DAA, visual score (100%=total damage; 0%=no damage), read-out: LOLPE PRE herbicidal activity (percentage phytotoxicity)): 100%
Cc1cc(C)c(C2C(=O)CC(CC(=O)N(C)C(C)(C)C)C2=O)c(C)c1 (stereo not drawn) [Compound B80]	80	90	60	0	90	90	90	100	
C=C(C)CNC(=O)CC1CC(=O)C(c2c(C)cc(-c3ncc(F)cn3)cc2C)C1=O (stereo not drawn) [Compound B278]									pest or weed control at 250 g/ha [1, 19]: 100%; pest or weed control at 250 g/ha [1, 20]: 100%; pest or weed control at 250 g/ha (Avena fatua (AVEFA); [21]): 100%; pest or weed control at 250 g/ha (Avena fatua (AVEFA); [22]): 100%; pest or weed control at 250 g/ha [2, 23]: 100%; pest or weed control at 250 g/ha [2, 24]: 100%; pest or weed control at 250 g/ha (Lolium perenne (LOLPE); [25]): 90%; pest or weed control at 250 g/ha (Lolium perenne (LOLPE); [26]): 100%
Cc1cc(C)c(C2CC(=O)C(CC(=O)NC(C)CC(C)C)C2=O)c(C)c1 (stereo not drawn) [Compound B25]	80	90	80	70	90	90	80	90	
Cc1cc(C)c(C2C(=O)CC(CC(=O)NC3=NOC(C)(C)C3)C2=O)c(C)c1 (stereo not drawn) [Compound B42]	60	0	60	0	0	0	40	0	
Cc1cc(C)c(C2C(=O)CC(CC(=O)NCc3ccc(OC(F)(F)F)cc3)C2=O)c(C)c1 (stereo not drawn) [Compound A92]									pest or weed control at 250 g/ha [1, 3]: 60%; pest or weed control at 250 g/ha [1, 4]: 70%; pest or weed control at 250 g/ha (Avena fatua (AVEFA); [5]): 70%; pest or weed control at 250 g/ha (Avena fatua (AVEFA); [6]): 60%; pest or weed control at 250 g/ha [2, 7]: 80%; pest or weed control at 250 g/ha [2, 8]: 80%; pest or weed control at 250 g/ha (Lolium perenne (LOLPE); [9]): 40%; pest or weed control at 250 g/ha (Lolium perenne (LOLPE); [10]): 90%
CCNC(=O)CC1CC(=O)C(c2c(C)cc(-c3ncc(Cl)cc3F)cc2C)C1=O (stereo not drawn) [Compound B103]	100	100	100	90	100	100	100	100	
CC#Cc1cc(C)c(C2C(=O)CC(CC(=O)NC(C)C)C2=O)c(C)c1 (stereo not drawn) [Compound A8, 2-[3-(2,6-dimethyl-4-prop-1-ynyl-phenyl)-2,4-dioxo-cyclopentyl]-N-isopropyl-acetamide]									pest or weed control at 250 g/ha [1, 3]: 100%; pest or weed control at 250 g/ha [1, 4]: 100%; pest or weed control at 250 g/ha (Avena fatua (AVEFA); [5]): 100%; pest or weed control at 250 g/ha (Avena fatua (AVEFA); [6]): 100%; pest or weed control at 250 g/ha [2, 7]: 100%; pest or weed control at 250 g/ha [2, 8]: 100%; pest or weed control at 250 g/ha (Lolium perenne (LOLPE); [9]): 100%; pest or weed control at 250 g/ha (Lolium perenne (LOLPE); [10]): 100%
COCC(C)NC(=O)CC1CC(=O)C(c2c(C)cc(-c3ncc(Cl)cc3F)cc2C)C1=O (stereo not drawn) [Compound B121]	100	100	100	90	100	100	100	100	
COCC(C)NC(=O)CC1CC(=O)C(c2c(C)cc(-c3ncc(F)cn3)cc2C)C1=O (stereo not drawn) [Compound B332]									pest or weed control at 250 g/ha [1, 19]: 100%; pest or weed control at 250 g/ha [1, 20]: 100%; pest or weed control at 250 g/ha (Avena fatua (AVEFA); [21]): 100%; pest or weed control at 250 g/ha (Avena fatua (AVEFA); [22]): 100%; pest or weed control at 250 g/ha [2, 23]: 100%; pest or weed control at 250 g/ha [2, 24]: 100%; pest or weed control at 250 g/ha (Lolium perenne (LOLPE); [25]): 100%; pest or weed control at 250 g/ha (Lolium perenne (LOLPE); [26]): 100%
